Test results as given in patent US8729088B2, “Toll-like receptor modulators and treatment of diseases” (The Regents of the University of California, priority 2009, dated 2014).

Columns and labels:
C57BL/6 mice [1] = assay: In vivo evaluation of adverse effects of TLR7 conjugates; settings: 10 nmoles per mouse with OVA
Method: Immunological reaction initiation (e.g. adjuvanticity) by TLR7 conjugates was also examined. Groups (n=5) of C57BL/6 mice were subcutaneously immunized with 20 μg ovalbumin (OVA) mixed with approximately 10 nmol of various TLR7 conjugates, on days 0 and 7, where 10 nmol is a dosage target for the TLR7 portion of the conjugate, and the actual amount will be dependent on the actual chemical formula of each conjugate. […] Sera were collected on days 0, 7, 14, 21, 28, 42 and 56. Mice immunized with saline or OVA mixed with vehicle served as controls. Mice were sacrificed on day 56 and the spleens were harvested for preparation of splenocytes and histological slides. Approximately 200 microliters of a 2.5×10^6/mL spleen cell stock were aliquoted into round-bottom tissue culture microtiter plates in triplicate in a total volume of 200 μl RPMI 1640 complete medium [RPMI1640 (Irvine Scientific, Irvine, Calif.) supplemented with 10% heat-inactivated FCS, 2 mM L-glutamine, and 100 U/mL penicillin/100 μg/mL streptomycin] and restimulated with either 100 μg/mL OVA or medium alone. […] Sections 5 μm thick were stained with hematoxylin and eosin (H&E) and evaluated under the microscope. […]
Therefore, as part of the experimental protocol, body weight and skin reaction (at site of injection) of the mice immunized, with lipid-TLR7 agonist conjugates, was monitored. […]

C57BL/6 mice [2] = assay: Thioglycolate induced peritonitis (peritoneal neutrophil infiltration); settings: for cell infiltration, particularly neutrophil, to the peritoneal cavity: three days
Method: Peritoneal cells were collected four hours after TG injection. Total cells were counted by haematocytometer and neutrophils were morphologically identified.
4 hours post TG injection total peritoneal cells were harvested and counted. Neutrophils were identified morphologically and counted.
One day after the last treatment, mice received intraperitoneal injection of 2 ml thioglycollate medium. […] Three hours after the thioglycollate injection, neutrophil infiltration to the peritoneum was evaluated.

[3] = 50 nmoles i.v. for three days before thioglycolate

SMILES	average body weights versus mice injected saline (C57BL/6 mice [1])	neutrophils recruited to the peritoneum (C57BL/6 mice [2]; [3])	total cells recruited to the peritoneum (C57BL/6 mice [2]; [3])	adverse reaction compared to TG (C57BL/6 mice [2]; mouse, in vivo)	cell infiltration, particularly neutrophil, to the peritoneal cavity (C57BL/6 mice [2]; oral route)	cell infiltration, particularly neutrophil, to the peritoneal cavity (C57BL/6 mice [2]; systemic (intravenous) route)
CCCCCCCC/C=C\CCCCCCCC(=O)OCC(COP(=O)(O)OCCNC(=O)c1ccc(Cn2c(=O)[nH]c3c(N)nc(OCCOC)nc32)cc1)OC(=O)CCCCCCC/C=C\CCCCCCCC (stereo not drawn) [Compound 6, 2-(4-((6-amino-2-(2-methoxyethoxy)-8-oxo-7H-purin-9(8H)-yl)methyl)benzamido)ethyl 2,3-bis(oleoyloxy)propyl phosphate]	No significant differences	–	–	–	–	–
COCCOc1nc(N)c2nc(O)n(Cc3ccc(C(=O)NCCOCCOCCOCCOCCOCCOCCOCCOCCOCCOCCn4cc(CCC(=O)O)nn4)cc3)c2n1 [Compound 8, 3-(1-(1-(4-((6-amino-8-hydroxy-2-(2-methoxyethoxy)-9H-purin-9-yl)methyl)phenyl)-1-oxo-5,8,11,14,17,20,23,26,29,32-decaoxa-2-azatetratriacontan-34-yl)-1H-1,2,3-triazol-4-yl)propanoic acid]	–	reduction	reduction	no additional adverse reaction	reduced cell infiltration	reduced cell infiltration
